From the supplement of paper PMC10011410
± gives the standard deviation of the averaged measurements.

Key:
U-2 OS [1] = test: relative cell count vs DMSO (cell painting) (fraction of DMSO control); higher = more cells remaining (less cytotoxic); conditions: 24 h
In short: (§1)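 Using 384-well plates holding about 1,500 U-2 OS cells per well, treatment was applied by pin tool for 24 h at 37 °C, generally at six 2-fold concentrations ranging from 20 μM to 625 nM. Staining with MitoTracker, concanavalin A, phalloidin, wheat germ agglutinin, Hoechst and SYTO 14 preceded Opera Phenix imaging and CellProfiler feature extraction against DMSO cells on the same plate. Activity score and cell count are both referenced to DMSO wells, the former as a Mahalanobis distance. Four replicate plates were averaged for every value.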

U-2 OS [2] = test: total intracellular glutathione (GSH + GSSG) relative to DMSO (% of control); higher = more glutathione; conditions: 24 h
In short: (§2)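 Most compounds were tested at 20, 10 and 5 μM with 0.4% DMSO, applied by pin tool to U-2 OS cells 24 h after seeding at 750 per well in white low-volume 384-well plates, followed by 24 h at 37 °C. Separate plates were read by luminescence for total glutathione and GSSG (GSH/GSSG-Glo) or for viability (CellTiter-Glo). Background- and row/column-corrected data are shown relative to vehicle or as a GSH:GSSG ratio.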

U-2 OS [3] = test: cell painting activity score (Mahalanobis distance from DMSO wells); higher = stronger morphological phenotype; conditions: 24 h
In short: as §1

U-2 OS [4] = test: intracellular GSH:GSSG ratio (calculated); higher = more reduced glutathione pool; conditions: 24 h
Experimental: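 Intracellular glutathione in U-2 OS cells after 24 h compound treatment at 5, 10 and 20 uM (some at 40 and 80 uM). Total glutathione and GSSG were measured with the GSH/GSSG-Glo kit, and the GSH:GSSG ratio was calculated. Mean of five technical replicate plates.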

U-2 OS [5] = test: AUC of culture confluence over time (live-cell imaging) (AUC (confluence % x time)); higher = more confluent culture (less growth inhibition)
In short: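 In 384-well plates, U-2 OS cells were seeded at 750 per well in F-12K medium containing 10% FBS. A pin tool added compounds 24 h after seeding, most at 20, 10 and 5 μM, along with 0.2% DMSO. Confluence was then followed at 37 °C on an Incucyte S3 (10x objective), with images every 4 h for up to 60 h. Values give the area under the confluence-versus-time curve.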

U-2 OS [6] = test: cell viability (CellTiter-Glo) relative to DMSO (% of control); higher = more viable; conditions: 24 h
In short: as §2

SMILES | relative cell count (U-2 OS [1]; 0.625 µM) | relative cell count (U-2 OS [1]; 1.25 µM) | relative cell count (U-2 OS [1]; 2.5 µM) | relative cell count (U-2 OS [1]; 5 µM) | relative cell count (U-2 OS [1]; 10 µM) | relative cell count (U-2 OS [1]; 20 µM) | total intracellular glutathione (U-2 OS [2]; 5 µM) | total intracellular glutathione (U-2 OS [2]; 10 µM) | total intracellular glutathione (U-2 OS [2]; 20 µM) | cell painting activity score (U-2 OS [3]; 0.625 µM) | cell painting activity score (U-2 OS [3]; 1.25 µM) | cell painting activity score (U-2 OS [3]; 2.5 µM) | cell painting activity score (U-2 OS [3]; 5 µM) | cell painting activity score (U-2 OS [3]; 10 µM) | cell painting activity score (U-2 OS [3]; 20 µM) | intracellular GSH:GSSG ratio (U-2 OS [4]; 5 µM) | intracellular GSH:GSSG ratio (U-2 OS [4]; 10 µM) | intracellular GSH:GSSG ratio (U-2 OS [4]; 20 µM) | AUC of culture confluence over time (U-2 OS [5]; 5 µM) | AUC of culture confluence over time (U-2 OS [5]; 10 µM) | AUC of culture confluence over time (U-2 OS [5]; 20 µM) | cell viability (U-2 OS [6]; 5 µM) | cell viability (U-2 OS [6]; 10 µM) | cell viability (U-2 OS [6]; 20 µM) | AUC of culture confluence over time (U-2 OS [5]; 0.625 µM) | AUC of culture confluence over time (U-2 OS [5]; 1.25 µM) | AUC of culture confluence over time (U-2 OS [5]; 2.5 µM)
O=C(NNS(=O)(=O)c1ccccc1)c1cc(-c2ccnnc2)ccc1F | 0.985 | 0.95 | 0.967 | 1.02 | 0.939 | 1.04 | 98 ± 3.1 | 94.3 ± 3 | 94.6 ± 4.8 | 4.47 | 4.16 | 3.77 | 3.67 | 4.24 | 4.38 | 23.9 | 21.4 | 23.2 | 49.6 | 50 | 49.6 | 95.6 ± 5.4 | 87.5 ± 7.7 | 88.5 ± 3.6 | – | – | –
CCCCCC[C@H]1C(=O)O[C@H](C)[C@H](NC(=O)c2cccc(NC=O)c2O)C(=O)O[C@@H](C)[C@@H]1OC(=O)CC(C)C | 0.8 | 0.81 | 0.802 | 0.8 | 0.783 | 0.831 | 65.6 ± 6.7 | 69.4 ± 4 | 66.1 ± 3 | 12.7 | 13.2 | 12.9 | 12.9 | 12.8 | 12.2 | 21.6 | 23.5 | 22.4 | 38 | 38 | 38.3 | 54.1 ± 5.4 | 59.2 ± 1.6 | 56.2 ± 3.1 | – | – | –
c1ccc(-c2noc(NC3CCCC3)n2)cc1 | 1.03 | 1.02 | 1.06 | 1.05 | 1.07 | 1.06 | 103 ± 5.1 | 103 ± 10 | 107 ± 7.1 | 2.72 | 2.85 | 2.97 | 3.02 | 2.62 | 3.1 | 28.5 | 30.3 | 26 | 44 | 42.5 | 44.2 | 95.5 ± 6.9 | 101 ± 8.9 | 97 ± 6.5 | – | – | –
C[C@@H]1C[C@H]2O[C@@H]2/C=C\C=C\C(=O)Cc2c(Cl)c(O)cc(O)c2C(=O)O1 | 0.852 ± 0.039 | 0.731 ± 0.047 | 0.597 ± 0.06 | 0.466 ± 0.042 | 0.419 ± 0.033 | 0.388 ± 0.018 | 87.8 ± 4.1 | 36 ± 6.1 | 12.9 ± 0.62 | 14.6 ± 1.8 | 14.1 ± 1.8 | 15.2 ± 1.9 | 16.2 ± 1.9 | 16.1 ± 1.1 | 15.3 ± 0.8 | 27 | 7.74 | 3.63 | 19.9 | 21.3 | 20.2 | 86.8 ± 3 | 24.7 ± 2.7 | 4.77 ± 0.71 | 57.8 | 48.6 | 46.8
Cn1nnnc1SC1=CS(=O)(=O)c2ccccc21 | 0.936 | 0.834 | 0.727 | 0.392 | 0.322 | 0.255 | 59.4 ± 4.2 | 85.3 ± 12 | 23.3 ± 3.9 | 5.5 | 8.76 | 12 | 21.3 | 13.8 | 21.5 | 3.69 | 2.11 | 0.199 | 19.6 | 16 | 12.1 | 54.9 ± 6.7 | 65.2 ± 7.2 | 6.9 ± 1.4 | – | – | –
c1ccc(Nc2nc(-c3ccccc3)ns2)cc1 | 0.915 | 0.89 | 0.908 | 0.925 | 0.958 | 0.841 | 104 ± 6.9 | 96.4 ± 2.9 | 98.2 ± 2.9 | 4.12 | 4.49 | 4.32 | 5.01 | 9.5 | 11.4 | 23.1 | 14.2 | 15.3 | 49.5 | 46.8 | 49.1 | 98.7 ± 3 | 95.3 ± 1.7 | 97.7 ± 4 | – | – | –
O=[N+]([O-])c1cc(Br)c2nsnc2c1Sc1ncnc2nc[nH]c12 | 0.89 | 0.788 | 0.814 | 0.205 | 0.0623 | 0.0543 | 56.4 ± 8.3 | 34.6 ± 12 | 7.7 ± 3.1 | 5.04 | 8.02 | 7.08 | 16.2 | 17.9 | 17.8 | 9.74 | 2.76 | 4.35 | 12.5 | 14.1 | 18 | 29.6 ± 6.5 | 6.03 ± 3.7 | 0.936 ± 0.27 | – | – | –
